Measured values reported in paper PMC7581941, “Schedule-Dependent Synergy Between the Histone Deacetylase Inhibitor Belinostat and the Dihydrofolate Reductase Inhibitor Pralatrexate in T-and B-cell Lymphoma Cells in vitro” (Frontiers in Cell and Developmental Biology, 2020).

How the values were obtained:
RFC = target: T1, RFC (Homo sapiens, UniProt P41440); test: RFC competition assay: inhibition of [3H]-l-LV uptake in CCRF-CEM/7A cells (RFC+++); type: cell-based; settings: 5 μM [3H]-l-LV, 2 min, 37°C, CCRF-CEM/7A cells; read-out: RFC: concentration of unlabeled drug necessary to inhibit [3H]-l-LV uptake by 50%
T1 construct: CEM-7A cells overexpress the RFC 30-fold over wild-type CCRF-CEM cells; endogenous in cells; host or cells: CCRF-CEM/7A (CEM-7A) cells
T1 sequence (P41440 1-591): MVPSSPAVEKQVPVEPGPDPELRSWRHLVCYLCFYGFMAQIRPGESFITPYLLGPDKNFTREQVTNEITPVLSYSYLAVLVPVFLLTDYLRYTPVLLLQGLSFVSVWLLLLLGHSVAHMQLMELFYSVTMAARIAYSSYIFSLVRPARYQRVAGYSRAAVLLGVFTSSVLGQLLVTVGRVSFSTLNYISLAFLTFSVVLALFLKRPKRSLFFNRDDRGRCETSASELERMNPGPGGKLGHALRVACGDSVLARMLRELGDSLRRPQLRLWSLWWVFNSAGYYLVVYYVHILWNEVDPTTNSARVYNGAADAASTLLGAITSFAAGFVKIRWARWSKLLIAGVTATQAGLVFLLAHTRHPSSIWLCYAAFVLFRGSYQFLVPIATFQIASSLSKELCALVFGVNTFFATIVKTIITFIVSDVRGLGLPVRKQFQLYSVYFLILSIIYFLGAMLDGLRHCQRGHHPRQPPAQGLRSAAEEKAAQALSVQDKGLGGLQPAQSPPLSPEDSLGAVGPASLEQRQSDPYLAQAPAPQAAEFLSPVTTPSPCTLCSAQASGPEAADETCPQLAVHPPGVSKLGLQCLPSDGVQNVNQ
Protocol: For FRα and FRβ, we used an intact cell binding assay for competitive binding with KB cells and CHO-FRβ cells, respectively. […] For RFC we used a competition assay with 5 μM [^3H]-l-LV in CCRF-CEM/7A cells (RFC+++) for 2 min at 37°C.
Transport was determined by evaluation of the uptake of 5 μM [^3H]-l-LV for 2 min in CCRF-CEM-7A cells, which overexpress RFC. […] Values are from one representative experiment in triplicate; performed three times. Error bars represent SEM, when not visible, they are within the size of the marker.

PCFT = target: T2, PCFT (Homo sapiens, UniProt Q96NT5); test: PCFT competition assay: inhibition of [3H]-l-LV influx in CHO-cells lacking RFC and transfected with PCFT; type: cell-based; settings: 2.5 μM [3H]-l-LV, pH 5.5, 3 min, 37°C; read-out: PCFT: concentration of unlabeled drug necessary to inhibit [3H]-LV influx
T2 construct: expressed in transfected cells; host or cells: CHO cells lacking RFC
T2 sequence (Q96NT5 1-459): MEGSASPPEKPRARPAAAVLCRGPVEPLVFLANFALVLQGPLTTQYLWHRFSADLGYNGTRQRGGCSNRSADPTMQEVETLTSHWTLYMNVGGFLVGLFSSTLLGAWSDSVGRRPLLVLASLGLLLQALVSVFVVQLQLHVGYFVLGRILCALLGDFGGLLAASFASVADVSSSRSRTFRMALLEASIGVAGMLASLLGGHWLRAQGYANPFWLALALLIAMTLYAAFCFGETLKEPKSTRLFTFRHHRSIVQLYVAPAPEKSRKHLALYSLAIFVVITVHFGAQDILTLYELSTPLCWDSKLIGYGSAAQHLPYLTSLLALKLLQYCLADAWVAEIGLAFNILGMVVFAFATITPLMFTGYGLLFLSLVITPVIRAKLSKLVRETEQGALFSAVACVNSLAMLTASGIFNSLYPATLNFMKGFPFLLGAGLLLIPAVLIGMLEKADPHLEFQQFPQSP
Protocol: The affinity for PCFT of PLX was assessed in competition with 2.5 μM ^3H-l-LV at pH 5.5 in CHO-cells lacking RFC and transfected with PCFT. […] […] Also for PCFT relative affinities were expressed as the concentration of unlabeled drug necessary to inhibit [^3H]-LV influx.

FRα = target: T3, FRα (Homo sapiens, UniProt P15328); test: Intact cell binding assay, displacement of radio-active folic acid from KB cells; settings: inverse ratio of compound to displace 50% of radio-active folic acid, folic acid set at 1
T3 construct: endogenous in cells; host or cells: KB cells
T3 sequence (P15328 25-257): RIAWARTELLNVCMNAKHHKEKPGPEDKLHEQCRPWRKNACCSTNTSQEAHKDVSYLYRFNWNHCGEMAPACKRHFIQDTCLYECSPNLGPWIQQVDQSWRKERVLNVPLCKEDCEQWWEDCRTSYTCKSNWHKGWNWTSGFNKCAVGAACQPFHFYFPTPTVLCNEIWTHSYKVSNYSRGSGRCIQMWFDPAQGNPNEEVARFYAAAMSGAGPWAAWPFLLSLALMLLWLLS
Protocol: In order to determine to which extent PLX was a substrate for either the folate receptors, RFC or PCFT we used competition experiments in cell lines overexpressing either transporter ([Westerhof et al., 1995a], [b]; [Jansen et al., 1997]; [Ifergan et al., 2008]; [Lasry et al., 2008]; [van der Heijden et al., 2009]). For FRα and FRβ, we used an intact cell binding assay for competitive binding with KB cells and CHO-FRβ cells, respectively. […] For RFC we used a competition assay with 5 μM [^3H]-l-LV in CCRF-CEM/7A cells (RFC+++) for 2 min at 37°C. CEM-7A cells overexpress the RFC 30-fold over wild-type CCRF-CEM cells ([Jansen et al., 1990], [1997]).

IC50 (RFC): 5.5 ± 0.7 µM | IC50 (PCFT): 4 ± 0.1 µM | FR-α relative affinity (FRα): 0.073 ± 0.0010
Compound: Nc1nc(=O)c2c([nH]1)NC[C@H](CNc1ccc(C(=O)N[C@@H](CCC(=O)O)C(=O)O)cc1)N2C=O [l-LV, l-Leucovorin]
